# Test results published in ChEMBL document CHEMBL3588828, “A Selective, Cell-Permeable Nonphosphorylated Bicyclic Peptidyl Inhibitor against Peptidyl-Prolyl Isomerase Pin1” (J Med Chem, 2015).
# Target: Peptidyl-prolyl cis-trans isomerase NIMA-interacting 1 (Homo sapiens, UniProt Q13526, S16A/Y23A)
# Assay: Binding affinity to N-terminal MBP fused and Texas-red-labeled full-length human Pin1 S16A/Y23A mutant expressed in Escherichia coli assessed as increase in fluorescence anisotropy by spectrofluorimetry
# Conditions: read-out: Kd
# Sequence of Peptidyl-prolyl cis-trans isomerase NIMA-interacting 1 (Q13526 whole entry S16A/Y23A, the tested form may be a part): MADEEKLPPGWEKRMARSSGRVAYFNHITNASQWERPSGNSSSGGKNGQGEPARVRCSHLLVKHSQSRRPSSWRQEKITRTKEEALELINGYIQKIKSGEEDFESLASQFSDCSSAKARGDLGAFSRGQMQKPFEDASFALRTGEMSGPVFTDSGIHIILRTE
row,Kd [nM],SMILES
1,450,C[C@@H]1NC(=O)[C@H](CCCNC(=N)N)NC(=O)[C@H](Cc2ccc3ccccc3c2)NC(=O)[C@H]2CCCCN2C(=O)[C@@H]([C@H](C)O)NC(=O)[C@H](Cc2ccc(F)cc2)NC(=O)[C@@H](Cc2ccccc2)NC(=O)c2cc3cc(c2)C(=O)NC[C@H](NC(=O)[C@@H](Cc2ccccc2)NC1=O)C(=O)N[C@@H](CCCNC(=N)N)C(=O)N[C@@H](Cc1ccc2ccccc2c1)C(=O)N[C@@H](CCCNC(=N)N)C(=O)N[C@@H](Cc1ccccc1)C(=O)N[C@@H](CCCNC(=N)N)C(=O)N[C@@H](CCCNC(=N)N)C(=O)N[C@H](C(=O)N[C@@H](CCCCN)C(=O)O)CNC3=O
2,980,C[C@@H]1NC(=O)[C@H](CCCNC(=N)N)NC(=O)[C@H](Cc2ccc3ccccc3c2)NC(=O)[C@H]2CCCCN2C(=O)[C@@H]([C@H](C)O)NC(=O)[C@H](Cc2ccc(F)cc2)NC(=O)[C@@H](Cc2ccccc2)NC(=O)c2cc3cc(c2)C(=O)NC[C@H](NC(=O)[C@@H](Cc2ccccc2)NC1=O)C(=O)N[C@@H](CCCNC(=N)N)C(=O)N[C@@H](CCCNC(=N)N)C(=O)N[C@@H](CCCNC(=N)N)C(=O)N[C@@H](CCCNC(=N)N)C(=O)N[C@@H](Cc1ccc2ccccc2c1)C(=O)N[C@@H](Cc1ccccc1)C(=O)N[C@H](C(=O)N[C@@H](CCCCN)C(=O)O)CNC3=O

# The remaining lines, values behind:
row,SMILES,Kd [nM]
1,CC(C)[C@@H]1NC(=O)[C@H](CCCNC(=N)N)NC(=O)[C@H](Cc2ccc3ccccc3c2)NC(=O)[C@H]2CCCCN2C(=O)[C@@H](CC(=O)O)NC(=O)CN(C)C(=O)[C@@H]2CCCN2C(=O)c2cc3cc(c2)C(=O)NC[C@H](NC(=O)[C@@H](C)NC1=O)C(=O)N[C@@H](Cc1ccccc1)C(=O)N[C@@H](Cc1ccc2ccccc2c1)C(=O)N[C@@H](CCCNC(=N)N)C(=O)N[C@@H](CCCNC(=N)N)C(=O)N[C@@H](CCCNC(=N)N)C(=O)N[C@@H](CCCNC(=N)N)C(=O)N[C@H](C(=O)N[C@@H](CCCCN)C(=O)O)CNC3=O,1750
2,C[C@@H]1NC(=O)[C@H](CCCNC(=N)N)NC(=O)[C@H](Cc2ccc3ccccc3c2)NC(=O)[C@H]2CCCCN2C(=O)[C@@H]([C@H](C)O)NC(=O)[C@H](Cc2ccc(F)cc2)NC(=O)[C@@H](Cc2ccccc2)NC(=O)c2cc3cc(c2)C(=O)NC[C@H](NC(=O)[C@@H](Cc2ccccc2)NC1=O)C(=O)N[C@H](CCCNC(=N)N)C(=O)N[C@@H](CCCNC(=N)N)C(=O)N[C@H](CCCNC(=N)N)C(=O)N[C@@H](CCCNC(=N)N)C(=O)N[C@@H](Cc1ccc2ccccc2c1)C(=O)N[C@@H](Cc1ccccc1)C(=O)N[C@H](C(=O)N[C@@H](CCCCN)C(=O)O)CNC3=O,3100
3,C[C@@H]1NC(=O)[C@H](CCCNC(=N)N)NC(=O)[C@H](Cc2ccc3ccccc3c2)NC(=O)[C@H]2CCCCN2C(=O)[C@@H](CC(=O)O)NC(=O)CN(C)C(=O)[C@@H]2CCCN2C(=O)c2cc3cc(c2)C(=O)NC[C@@H](C(=O)N[C@@H](CCCCN)C(=O)O)NC(=O)[C@H](CCCNC(=N)N)NC(=O)[C@H](CCCNC(=N)N)NC(=O)[C@H](CCCNC(=N)N)NC(=O)[C@H](CCCNC(=N)N)NC(=O)[C@H](Cc2ccc4ccccc4c2)NC(=O)[C@H](Cc2ccccc2)NC(=O)[C@H](CNC3=O)NC1=O,2590
4,C[C@@H]1NC(=O)[C@H](CCCNC(=N)N)NC(=O)[C@H](Cc2ccc3ccccc3c2)NC(=O)[C@H]2CCCCN2C(=O)[C@@H]([C@H](C)O)NC(=O)[C@H](Cc2ccc(F)cc2)NC(=O)[C@@H](Cc2ccccc2)NC(=O)c2cc3cc(c2)C(=O)NC[C@H](NC(=O)[C@@H](C)NC1=O)C(=O)N[C@@H](Cc1ccccc1)C(=O)N[C@@H](Cc1ccc2ccccc2c1)C(=O)N[C@@H](CCCNC(=N)N)C(=O)N[C@@H](CCCNC(=N)N)C(=O)N[C@@H](CCCNC(=N)N)C(=O)N[C@@H](CCCNC(=N)N)C(=O)N[C@H](C(=O)N[C@@H](CCCCN)C(=O)O)CNC3=O,670
